Read-outs that look alike come from different tables or passages of the source.
Columns and labels:
human Nav1.8 = human Nav1.8 (Homo sapiens (Human), UniProt Q9Y5Y9); assay: E-VIPR optical membrane potential assay with electrical stimulation (NaV1.8 IC50 activity); format: cell-based
From the text: Sodium channels are voltage-dependent proteins that can be activated by inducing membrane voltage changes by applying electric fields. The electrical stimulation instrument and methods of use are described in Ion Channel Assay Methods PCT/US01/21652, herein incorporated by reference and are referred to as E-VIPR. The instrument comprises a microtiter plate handler, an optical system for exciting the coumarin dye while simultaneously recording the coumarin and oxonol emissions, a waveform generator, a current- or voltage-controlled amplifier, and a device for inserting electrodes in well. Under integrated computer control, this instrument passes user-programmed electrical stimulus protocols to cells within the wells of the microtiter plate.
24 hours before the assay on E-VIPR, HEK cells expressing human Nav1.8 were seeded in 384-well poly-lysine coated plates at 15,000-20,000 cells per well. […] Cells were grown in vented cap flasks, in 90% humidity and 5% CO2.
1) Pre-spotted compounds (in neat DMSO) into compound plates. […] Final compound plate volume was 80 μL (80-fold intermediate dilution from 1 μL DMSO spot; 160-fold final dilution after transfer to cell plate).
2) Prepared Hexyl Dye Solution.
3) Prepared cell plates. On the day of the assay, medium was aspirated and cells were washed three times with 100 μL of Bath1 Solution, maintaining 25 μL residual volume in each well.
4) Dispensed 25 μL per well of Hexyl Dye Solution into cell plates. Incubated for 20-35 minutes at room temp or ambient conditions.
5) Dispensed 80 μL per well of Bath1 into compound plates. Acid Yellow-17 (1 mM) was added and Potassium Chloride was altered from 4.5 to 20 mM depending on the NaV subtype and assay sensitivity.
6) Washed cell plates three times with 100 μL per well of Bath1, leaving 25 μL of residual volume. […] Incubated for 20-35 minutes at room temp/ambient condition.
7) Read Plate on E-VIPR. […] A pre-stimulus recording was performed for 0.5 seconds to obtain the un-stimulated intensities baseline. The stimulatory waveform was followed by 0.5 seconds of post-stimulation recording to examine the relaxation to the resting state.
Data was analyzed and reported as normalized ratios of emission intensities measured in the 460 nm and 580 nm channels. The response as a function of time was reported as the ratios obtained using the following formula: […]
The data was further reduced by calculating the initial (Ri) and final (Rf) ratios. These were the average ratio values during part or all of the pre-stimulation period, and during sample points during the stimulation period. The response to the stimulus R=Rf/Ri was then calculated and reported as a function of time.
Control responses were obtained by performing assays in the presence of a compound with the desired properties (positive control), such as tetracaine, and in the absence of pharmacological agents (negative control). Responses to the negative (N) and positive (P) controls were calculated as above.

Aqueous solubility study = format: physicochemical; details: thermodynamic from solid
Protocol: The aqueous solubility of compound 9 and 9a were determined according to the following procedure. Solubility data was determined at ambient conditions by equilibrating the compound with water on a shaking bed for 24 hours, followed by centrifugation and separation of the saturated solutions. The pH value of each media was measured before centrifugation, and the saturated solutions were assayed by HPLC.

[1] = Monkey oral pharmacokinetic study; format: in vivo, cynomolgus monkeys
Protocol: (§1) Sample Analysis. […] Before extraction, plasma samples were diluted using blank plasma at an appropriate dilution factor, as necessary, depending on the dose level. […] After centrifugation, the supernatant extract (10 μL) was injected onto the LC/MS/MS system. The HPLC system included a Phenomenex Synergy Kinetix C8 column, 2.6 micron, 2.0 mm diameter×75 mm long eluted with a gradient mobile phase consisting of 0.1% formic acid in water or in acetonitrile.
(§2) The analytes were detected by MS/MS with Electrospray Ionization (ESI) in the mode of multiple reaction monitoring (MRM). […] The intra-day and inter-day assay accuracy was within 20% of the nominal values. The intra- and inter-day assay variability was ≦20%.
(§3) Pharmacokinetic Data Analysis.
(§4) Key pharmacokinetic parameters such as AUCall, AUCextra, Cmax, tmax, Cl, Vss and t1/2 were determined.
(§5) Statistical Data Analysis. Descriptive statistical data of pharmacokinetic parameters were calculated, including the mean, standard deviation (SD), using Watson LIMS version 7.4 SP3 or Microsoft Excel 2000.
Male or female cynomolgus monkeys (n=3 per dose group) were administered single nominal PO doses of 10, 40, 100, 300, 500, 750 and 1000 mg/kg of compound 9 by gavage. Compound 9 was formulated in 30% PEG400 and 10% TPGS in water or 5% TPGS, 5% PVP-K30 in 50 mM Citrate, pH 5. […]

[2] = Rat oral pharmacokinetic study; format: in vivo, Sprague Dawley rats
Protocol: as §1, §2, §3, §4, §5
Groups of male and female Sprague Dawley rats (n=3 per dose group) were administered single nominal oral doses of 10, 100, 400, 640, 1000 mg/kg (for males) and 30, 100, 300, 640, 1000 mg/kg (for females) of compound 9 by gavage. Compound 9 was formulated in either 30% PEG400 and 10% TPGS in water or 5% TPGS, 5% PVP-K30 in 50 mM Citrate, pH 5. Animals had free access to food and water before and after dosing. Blood samples (approximately 0.25 mL each) were collected via a carotid artery catheter prior to dosing and at 0.25, 0.5, 1, 2, 4, 8, 12, 24, 48 and 72 hours post dose. Each blood sample was collected into a tube that was kept on wet ice and contained potassium EDTA as the anticoagulant. Plasma was separated and stored at approximately −70° C. until analysis.

[3] = Rat IV pharmacokinetic study; format: in vivo, Sprague Dawley rats; details: rat, single IV bolus 1 mg/kg of compound 9; LLOQ 2.5 ng/mL
Protocol: as §1, §2, §3, §4, §5
Male Sprague Dawley rats (n=3) were administered a single nominal IV bolus dose of 1 mg/kg of compound 9 via a jugular vein cannula. […] Animals had free access to food and water before and after dosing. Blood samples (approximately 0.25 mL each) were collected via a carotid artery catheter prior to dosing and at 5 min, 10 min, 0.25, 0.5, 1, 2, 4, 8, 12, 24 hours post dose. Each blood sample was collected into a tube that was kept on wet ice and contained potassium EDTA as the anticoagulant. Plasma was separated and stored at approximately −70° C. until analysis.
Plasma concentration vs. time data were subjected to noncompartmental pharmacokinetic (PK) analysis.

Chain of human Nav1.8 (Q9Y5Y9 whole entry): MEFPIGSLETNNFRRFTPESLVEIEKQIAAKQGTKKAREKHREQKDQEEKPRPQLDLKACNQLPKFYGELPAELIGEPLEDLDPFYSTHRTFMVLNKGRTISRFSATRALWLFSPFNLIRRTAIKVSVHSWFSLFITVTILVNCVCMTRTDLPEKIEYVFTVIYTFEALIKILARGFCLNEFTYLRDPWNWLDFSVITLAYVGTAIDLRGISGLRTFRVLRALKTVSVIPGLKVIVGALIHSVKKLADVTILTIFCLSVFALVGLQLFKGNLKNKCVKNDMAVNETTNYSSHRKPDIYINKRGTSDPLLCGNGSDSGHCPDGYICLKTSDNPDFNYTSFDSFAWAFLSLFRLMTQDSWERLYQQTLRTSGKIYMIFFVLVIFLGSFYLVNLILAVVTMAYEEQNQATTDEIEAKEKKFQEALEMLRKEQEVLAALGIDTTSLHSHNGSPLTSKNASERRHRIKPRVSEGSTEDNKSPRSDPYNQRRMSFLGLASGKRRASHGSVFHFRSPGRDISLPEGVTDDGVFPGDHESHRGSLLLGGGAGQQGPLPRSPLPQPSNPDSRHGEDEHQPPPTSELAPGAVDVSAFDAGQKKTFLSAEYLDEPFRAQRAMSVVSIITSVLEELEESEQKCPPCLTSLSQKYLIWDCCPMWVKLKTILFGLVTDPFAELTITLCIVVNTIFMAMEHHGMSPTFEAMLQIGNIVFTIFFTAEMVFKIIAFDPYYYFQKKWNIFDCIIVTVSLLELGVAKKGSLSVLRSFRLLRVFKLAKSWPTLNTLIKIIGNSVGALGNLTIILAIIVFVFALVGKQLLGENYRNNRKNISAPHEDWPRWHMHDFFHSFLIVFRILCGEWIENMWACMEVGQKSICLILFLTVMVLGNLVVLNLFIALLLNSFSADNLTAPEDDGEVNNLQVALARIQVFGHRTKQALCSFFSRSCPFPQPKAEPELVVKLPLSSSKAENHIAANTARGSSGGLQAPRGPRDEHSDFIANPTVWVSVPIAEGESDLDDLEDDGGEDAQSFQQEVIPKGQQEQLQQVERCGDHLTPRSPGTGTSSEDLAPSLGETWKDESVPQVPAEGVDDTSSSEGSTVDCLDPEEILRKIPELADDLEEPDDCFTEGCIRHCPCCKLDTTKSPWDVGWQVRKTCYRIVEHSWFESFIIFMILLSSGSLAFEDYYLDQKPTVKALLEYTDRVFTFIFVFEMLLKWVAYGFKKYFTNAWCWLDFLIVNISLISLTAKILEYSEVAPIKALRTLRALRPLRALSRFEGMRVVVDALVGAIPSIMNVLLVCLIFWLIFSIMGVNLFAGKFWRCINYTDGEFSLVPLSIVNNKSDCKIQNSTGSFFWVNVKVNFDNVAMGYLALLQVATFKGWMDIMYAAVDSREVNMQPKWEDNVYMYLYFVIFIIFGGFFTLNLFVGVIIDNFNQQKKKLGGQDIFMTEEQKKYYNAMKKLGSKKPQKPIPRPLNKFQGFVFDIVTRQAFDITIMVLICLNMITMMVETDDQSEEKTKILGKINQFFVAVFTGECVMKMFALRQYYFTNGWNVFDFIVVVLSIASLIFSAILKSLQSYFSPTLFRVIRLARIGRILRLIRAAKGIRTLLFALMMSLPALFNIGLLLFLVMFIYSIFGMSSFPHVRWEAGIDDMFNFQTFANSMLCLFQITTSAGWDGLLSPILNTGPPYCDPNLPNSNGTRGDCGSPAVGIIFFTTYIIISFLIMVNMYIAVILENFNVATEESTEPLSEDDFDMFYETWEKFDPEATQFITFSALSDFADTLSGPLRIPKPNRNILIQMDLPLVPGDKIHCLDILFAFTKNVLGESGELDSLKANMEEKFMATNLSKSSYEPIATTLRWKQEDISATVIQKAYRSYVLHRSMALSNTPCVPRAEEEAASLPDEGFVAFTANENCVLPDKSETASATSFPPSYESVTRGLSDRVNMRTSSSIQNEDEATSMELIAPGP

IC50 (human Nav1.8): 330 nM
solubility at 24 h (Aqueous solubility study; aqueous medium, aqueous buffer, pH 3, crystalline, ambient conditions, 24 hours, read-out: Solubility): 110 µg/mL
solubility at 24 h (Aqueous solubility study; aqueous medium, aqueous buffer, pH 3.3, crystalline, ambient conditions, 24 hours, read-out: Solubility): 240 µg/mL
solubility at 24 h (Aqueous solubility study; aqueous medium, aqueous buffer, pH 5, crystalline, ambient conditions, 24 hours, read-out: Solubility): 420 µg/mL
solubility at 24 h (Aqueous solubility study; aqueous medium, aqueous buffer, pH 7, crystalline, ambient conditions, 24 hours, read-out: Solubility): 500 µg/mL
solubility at 24 h (Aqueous solubility study; aqueous medium, aqueous buffer, pH 8, crystalline, ambient conditions, 24 hours, read-out: Solubility): 2240 µg/mL
solubility at 24 h (Aqueous solubility study; aqueous medium, simulated gastric fluid, pH 1, crystalline, ambient conditions, 24 hours, read-out: Solubility): 2 µg/mL
solubility at 24 h (Aqueous solubility study; water, read-out: aqueous solubility in water): ~300 µg/mL
in vivo conversion of prodrug into parent compound ([1]; monkeys): converted in vivo into compound 9a
in vivo conversion of prodrug into parent compound ([2]; rats): converted in vivo into compound 9a
SMILES: Cc1cc(F)ccc1Oc1cc(C(F)(F)F)ccc1C(=O)Nc1ccn(COP(=O)(O)O)c(=O)c1 [Compound 9, (4-(2-(4-fluoro-2-methylphenoxy)-4-(trifluoromethyl)benzamido)-2-oxopyridin-1(2H)-yl)methyl dihydrogen phosphate]
plasma concentrations of compound 9 ([1]; monkey, single PO doses 10-1000 mg/kg of compound 9, LLOQ 10.0 to 25.0 ng/mL): below LLOQ for the majority of the samples
plasma concentrations of compound 9 ([2]; rat, single oral doses 10-1000 mg/kg of compound 9, LLOQ 2.5 to 25 ng/mL): below LLOQ for the majority of the samples
plasma concentrations of compound 9 [3]: below LLOQ for the majority of the samples
